Our source for the IC50 values is US20140323504A1, “Pyrazolo[4,3-c]Pyridine Derivatives As Kinase Inhibitors” (Cellzome Limited, priority 2011, published 2014).

The structures appear in SMILES notation.

One assay deals with T1, Tyk2 (Homo sapiens, UniProt P29597).
T1 construct: endogenous in cells; host or cells: mixed Molt4/Ramos cell lysate (1:2)
Put plainly: Kinobeads assay with antibody detection, TYK2. The class given is binding. The following applies: mixed Molt4/Ramos lysate, read-out: Tyk2 inhibition value (IC50). As for the experimental part: (§1) The compounds of the present invention as described in the previous examples were tested in a Kinobeads™ assay as described for ZAP-70 (WO-A 2007/137867). Briefly, test compounds (at various concentrations) and the affinity matrix with the immobilized aminopyrido-pyrimidine ligand 24 were added to cell lysate aliquots and allowed to bind to the proteins in the lysate sample. After the incubation time the beads with captured proteins were separated from the lysate. Bound proteins were then eluted and the presence of JAK1; JAK2, JAK3 and TYK2 was detected and quantified using specific antibodies in a dot blot procedure and the Odyssey infrared detection system. Dose response curves for individual kinases were generated and IC50 values calculated. Kinobeads™ assays for ZAP-70 (WO-A 2007/137867) and for kinase selectivity profiling (WO-A 2006/134056) have been previously described.
(§2) 5×DP buffer: 250 mM Tris-HCl pH 7.4, 25% Glycerol, 7.5 mM MgCl2, 750 mM NaCl, 5 mM Na3VO4; filter the 5×DP buffer through a 0.22 μm filter and store in aliquot at −80° C. The 5×DP buffer is diluted with H2O to 1×DP buffer containing 1 mM DTT and 25 mM NaF.
(§3) Stock solutions of test compounds were prepared in DMSO. In a 96 well plate 30 μL solution of diluted test compounds at 5 mM in DMSO were prepared. Starting with this solution a 1:3 dilution series (9 steps) was prepared. For control experiments (no test compound) a buffer containing 2% DMSO was used.
(§4) Molt4 cells (ATCC catalogue number CRL-1582) and Ramos cells (ATCC catalogue number CRL-1596) were grown in 1 L Spinner flasks (Integra Biosciences, #182101) in suspension in RPMI 1640 medium (Invitrogen, #21875-034) supplemented with 10% Fetal Bovine Serum (Invitrogen) at a density between 0.15×10^6 and 1.2×10^6 cells/mL. Cells were harvested by centrifugation, washed once with 1×PBS buffer (Invitrogen, #14190-094) and cell pellets were frozen in liquid nitrogen and subsequently stored at −80° C. Cells were homogenized in a Potter S homogenizer in lysis buffer: 50 mM Tris-HCl, 0.8% NP40, 5% glycerol, 150 mM NaCl, 1.5 mM MgCl2, 25 mM NaF, 1 mM sodium vanadate, 1 mM DTT, pH 7.5. One complete EDTA-free tablet (protease inhibitor cocktail, Roche Diagnostics, 1873580) per 25 mL buffer was added. The material was dounced 10 times using a mechanized POTTER S, transferred to 50 mL falcon tubes, incubated for 30 minutes on ice and spun down for 10 minutes at 20,000 g at 4° C. (10,000 rpm in Sorvall SLA600, precooled). The supernatant was transferred to an ultracentrifuge (UZ)-polycarbonate tube (Beckmann, 355654) and spun for 1 hour at 100.000 g at 4° C. (33.500 rpm in Ti50.2, precooled). The supernatant was transferred again to a fresh 50 mL falcon tube, the protein concentration was determined by a Bradford assay (BioRad) and samples containing 50 mg of protein per aliquot were prepared. The samples were immediately used for experiments or frozen in liquid nitrogen and stored frozen at −80° C.
(§5) Cell lysate (approximately 50 mg protein per plate) was thawed in a water bath at room temperature and then stored on ice. To the thawed cell lysate 1×DP 0.8% NP40 buffer containing protease inhibitors (1 tablet for 25 mL buffer; EDTA-free protease inhibitor cocktail; Roche. Diagnostics 1873580) was added in order to reach a final protein concentration of 10 mg/mL total protein. The diluted cell lysate was stored on ice. Mixed Molt4Ramos lysate was prepared by combining one volume of Molt4 lysate and two volumes of Ramos lysate (ratio 1:2).
(§6) Plates were sealed and incubated for 3 hours in a cold room on a plate shaker (Heidolph tiramax 1000) at 750 rpm. Afterwards the plate was washed 3 times with 230 μL washing buffer (1×DP 0.4% NP40). The filter plate was placed on top of a collection plate (Greiner bio-one, PP-microplate 96 well V-shape, 65120) and the beads were then eluted with 20 μL of sample buffer (100 mM Tris, pH 7.4, 4% SDS, 0.00025% bromophenol blue, 20% glycerol, 50 mM DTT). […]

For assay [1], the system named is STAT5 phosphorylation in IL-2 stimulated YT cells. The assay can be described thus: pSTAT5 cell assay (IL-2 stimulated YT cells, AlphaScreen). The following applies: IL-2 stimulated human YT cells, 1 h compound incubation. Type of assay: cell-based. From the text:
STAT5 phosphorylation represents one of the proximal events in the signalling cascade downstream of JAK3 activation. Therefore STAT5 phosphorylation is an appropriate readout to assess the mechanistic effect of JAK3 inhibition. Stimulation of human YT cells, an NK-like cell line, with interleukin-2 (IL-2) results in phosphorylation of STATS at tyrosine residue 694 (Tyr694) that can be quantitatively measured by immunodetection with specific antibodies and an appropriate detection method, in this case AlphaScreen assay technology.
Human YT cells were grown in RPMI medium (Lonza, BE12-167) with 2 mM L-Glutamine (Invitrogen, 25030-024) and 10% heat-inactivated FBS (Invitrogen, 10106-169) and kept in a humidified incubator (37° C., 5% CO2). Cells were harvested by centrifugation, washed once with HBSS (Invitrogen, 14180-046), resuspended in HESS at 1.5×10^6 cells/ml and 0.9×10^4 cells were seeded in 6 μl per well in a 96 well White plate (PerkinElmer, 6005569).
Test compounds were dissolved in DMSO and a 1:3 dilution series (9 steps) was prepared. To generate a dose response curve, […] of fourfold concentrated compound in 4% DMSO/HBSS were added to each cell sample in the 96 well plate resulting in a final DMSO concentration of 1% DMSO. Cells were incubated for one hour in a humidified incubator (37° C., 5% CO2). To each well 3 μl of a fourfold concentrated IL-2 solution (Recombinant human IL-2, Peprotech 200-02; 120 nM solution in HBSS) was added and incubated for 30 minutes at room temperature. Cells were lysed by adding 3 μl of 5× lysis buffer (SureFire lysis buffer; Perkin Elmer, TGRS5S10K) and incubated for 10 minutes at room temperature with gentle shaking.
For signal detection by AlphaScreen® technology the SureFire phospho-STAT5 (Tyr694Tyr699) kit was used according to instructions provided by the manufacturer (Perkin Elmer, TGRS5S10K). Acceptor beads were added as recommended by the manufacturer (Reactivation buffer/Activation buffer/Acceptor beads at a ratio of 40:10:1) and incubated at room temperature for 1.5 hours with gentle shaking. Then donor beads were added as recommended (Dilution buffer/Donor beads at a ratio of 20:1) and incubated at room temperature for 1.5 hours with gentle shaking. Plates were read on an Envision instrument (Perkin Elmer) with the AlphaScreen protocol. Data were analysed in BioAssay using the nonlinear regression for a sigmoidal dose-response with a variable slope.
A general note: In Alpha technology, singlet oxygen from a donor bead excites a nearby acceptor bead.

The target of the next assay is T2, JAK2 (Homo sapiens, UniProt O60674).
T2 construct: endogenous in cells; host or cells: mixed Molt4/Ramos cell lysate (1:2)
The assay can be described thus: Kinobeads assay with antibody detection, JAK2. The class given is binding. The following applies: mixed Molt4/Ramos lysate, read-out: JAK2 inhibition value (IC50). The procedure:
as §1, §2, §3, §4, §5, §6

T2 sequence (O60674 whole entry): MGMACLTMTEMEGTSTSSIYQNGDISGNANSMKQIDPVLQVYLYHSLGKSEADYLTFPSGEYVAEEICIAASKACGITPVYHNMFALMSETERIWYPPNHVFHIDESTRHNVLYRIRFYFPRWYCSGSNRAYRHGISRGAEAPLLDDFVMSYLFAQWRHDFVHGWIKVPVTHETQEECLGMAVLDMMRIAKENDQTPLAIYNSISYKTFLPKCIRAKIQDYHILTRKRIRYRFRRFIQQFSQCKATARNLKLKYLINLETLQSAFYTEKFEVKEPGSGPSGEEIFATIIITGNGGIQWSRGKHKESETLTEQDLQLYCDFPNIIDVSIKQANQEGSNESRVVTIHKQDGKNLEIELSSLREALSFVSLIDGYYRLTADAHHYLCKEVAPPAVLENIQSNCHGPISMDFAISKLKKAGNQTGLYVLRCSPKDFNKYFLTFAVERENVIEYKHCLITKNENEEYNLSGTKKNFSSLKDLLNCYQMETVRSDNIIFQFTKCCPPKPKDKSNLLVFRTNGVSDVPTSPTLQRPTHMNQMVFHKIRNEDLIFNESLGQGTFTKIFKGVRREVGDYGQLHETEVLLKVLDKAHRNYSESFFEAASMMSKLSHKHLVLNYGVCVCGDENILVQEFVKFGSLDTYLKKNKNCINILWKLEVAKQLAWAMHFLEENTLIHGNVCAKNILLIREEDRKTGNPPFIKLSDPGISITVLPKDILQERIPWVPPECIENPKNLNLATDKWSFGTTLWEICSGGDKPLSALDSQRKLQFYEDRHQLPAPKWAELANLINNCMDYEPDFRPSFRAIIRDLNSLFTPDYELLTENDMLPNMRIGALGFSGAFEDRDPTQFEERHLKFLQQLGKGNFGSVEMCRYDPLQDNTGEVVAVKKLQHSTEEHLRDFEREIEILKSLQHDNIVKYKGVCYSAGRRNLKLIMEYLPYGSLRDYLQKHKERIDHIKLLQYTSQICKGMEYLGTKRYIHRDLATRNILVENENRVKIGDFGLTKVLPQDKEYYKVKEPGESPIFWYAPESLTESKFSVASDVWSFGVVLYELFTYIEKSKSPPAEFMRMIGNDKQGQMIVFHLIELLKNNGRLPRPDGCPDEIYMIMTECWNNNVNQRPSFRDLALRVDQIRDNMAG
T1 sequence (P29597 whole entry): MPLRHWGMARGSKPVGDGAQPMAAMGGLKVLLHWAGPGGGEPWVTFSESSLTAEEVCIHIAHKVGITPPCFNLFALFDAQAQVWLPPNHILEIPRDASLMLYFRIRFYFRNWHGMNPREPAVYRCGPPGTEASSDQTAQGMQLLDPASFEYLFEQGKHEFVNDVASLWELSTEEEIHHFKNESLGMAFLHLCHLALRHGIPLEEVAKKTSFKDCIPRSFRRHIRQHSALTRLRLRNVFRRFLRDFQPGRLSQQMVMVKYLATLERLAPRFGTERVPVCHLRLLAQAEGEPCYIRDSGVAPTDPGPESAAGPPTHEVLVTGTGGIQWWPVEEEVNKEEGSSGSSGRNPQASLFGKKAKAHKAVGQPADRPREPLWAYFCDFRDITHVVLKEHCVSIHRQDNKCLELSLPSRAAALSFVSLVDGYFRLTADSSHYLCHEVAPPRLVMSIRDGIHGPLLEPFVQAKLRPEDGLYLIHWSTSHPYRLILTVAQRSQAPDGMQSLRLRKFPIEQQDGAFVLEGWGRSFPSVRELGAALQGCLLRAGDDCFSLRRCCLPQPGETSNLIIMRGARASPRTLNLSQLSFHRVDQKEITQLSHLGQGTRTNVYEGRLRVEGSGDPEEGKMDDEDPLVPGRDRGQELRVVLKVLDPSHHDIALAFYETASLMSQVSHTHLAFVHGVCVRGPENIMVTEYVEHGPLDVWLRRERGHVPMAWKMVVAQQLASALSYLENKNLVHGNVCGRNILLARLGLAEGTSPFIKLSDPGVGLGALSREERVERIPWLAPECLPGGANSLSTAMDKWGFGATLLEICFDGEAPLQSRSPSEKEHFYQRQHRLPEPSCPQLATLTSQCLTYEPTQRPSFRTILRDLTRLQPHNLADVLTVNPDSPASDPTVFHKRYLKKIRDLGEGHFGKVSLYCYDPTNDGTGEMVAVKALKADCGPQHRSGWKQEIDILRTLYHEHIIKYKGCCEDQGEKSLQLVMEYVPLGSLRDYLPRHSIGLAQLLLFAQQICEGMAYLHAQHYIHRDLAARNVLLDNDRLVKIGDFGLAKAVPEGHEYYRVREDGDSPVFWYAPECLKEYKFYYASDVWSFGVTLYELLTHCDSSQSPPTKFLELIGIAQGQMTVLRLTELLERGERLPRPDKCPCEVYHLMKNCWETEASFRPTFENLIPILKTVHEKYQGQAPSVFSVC

The IC50 is the concentration that gives 50% inhibition. As for `C=CC(=O)Nc1cccc(Cn2ncc3cnc(Nc4cnn(C)c4)nc32)c1` [Example 1, N-(3-((6-((1-Methyl-1H-pyrazol-4-yl)amino)-1H-pyrazolo[3,4-d]pyrimidin-1-yl)methyl)phenyl)acrylamide], the IC50 was more than 10 µM on Tyk2, 0.031 µM in assay [1] and more than 10 µM at JAK2.
Take `C=CC(=O)Nc1cc(Cn2ncc3cnc(Nc4cnn(C)c4)nc32)ccc1F` [Example 2, […]]: the IC50 at Tyk2 was more than 10 µM; in assay [1] it was 0.378 µM; at JAK2, more than 10 µM.
For `C#CC(=O)Nc1cccc(Cn2ncc3cnc(Nc4cnn(C)c4)nc32)c1` [Example 3, N-(3-((6-((1-Methyl-1H-pyrazol-4-yl)amino)-1H-pyrazolo[3,4-d]pyrimidin-1-yl)methyl)phenyl)propiolamide], the IC50 is 6.96 µM on Tyk2, 0.033 µM in assay [1] and more than 10 µM on JAK2.
Regarding `C=CS(=O)(=O)Nc1cccc(Cn2ncc3cnc(Nc4cnn(C)c4)nc32)c1` [Example 4, N-(3-((6-((1-Methyl-1H-pyrazol-4-yl)amino)-1H-pyrazolo[3,4-d]pyrimidin-1-yl)methyl)phenyl)ethenesulfonamide], the IC50 on Tyk2 is 6.13 µM; in assay [1], 0.074 µM; on JAK2, more than 10 µM.
Take `C=C(C)C(=O)Nc1cccc(Cn2ncc3cnc(Nc4cnn(C)c4)nc32)c1` [Example 5, N-(3-((6-((1-Methyl-1H-pyrazol-4-yl)amino)-1H-pyrazolo[3,4-d]pyrimidin-1-yl)methyl)phenyl)methacrylamide]: the results for the IC50 (at Tyk2; in assay [1]; on JAK2) were more than 10 µM, 2 µM and more than 10 µM, respectively.
As for `C=CS(=O)(=O)Nc1cccc(Cn2ccc3cnc(Nc4cnn(C)c4)nc32)c1` [Example 7, N-(3-((2-((1-Methyl-1H-pyrazol-4-yl)amino)-7H-pyrrolo[2,3-d]pyrimidin-7-yl)methyl)phenyl)ethenesulfonamide], the IC50 at Tyk2 is 0.901 µM; in assay [1], 0.079 µM; on JAK2, more than 10 µM.
Consider `CC(=O)Nc1cccc(Cn2ncc3cnc(Nc4cnn(C)c4)nc32)c1` [compound 2, N-(3-((6-((1-methyl-1H-pyrazol-4-yl)amino)-1H-pyrazolo[3,4-d]pyrimidin-1-yl)methyl)phenyl)acetamide, reference compound], for which the IC50 at Tyk2 and at JAK2 was more than 10 µM in each case.
